Patent US7202245B2, “Substituted 4-amino[1,2,4]triazolo[4,3-a] quinoxalines” (Pfizer Inc., priority 2003, dated 2007)

Target: T1, GSK-3 (Homo sapiens, UniProt P49841)
T1 construct: made in house; as in Stambolic et al. 1996
Assay: GSK-3 inhibition, cell-free 33P-ATP peptide substrate assay
Type: biochemical
Conditions: read-out: inhibitory activity, expressed as IC50's, against GSK-3
Description: The specific activities of the compounds of formula (I) in inhibiting GSK-3 can be determined in both cell-free and cell-based assays, both of which have been previously described in the relevant art. See, for example, U.S. Pat. Nos. 6,417,185 and 6,489,344, the disclosures of which are incorporated herein by reference in their entirety.
A cell-free testing assay can be generally carried out by incubating GSK-3 with a peptide substrate, radiolabeled ATP (e.g., for example, […], both of which are available from Amersham; Arlington Heights, Ill.), magnesium ions, and the compound to be assayed. […] The amount of γ^33P or γ^32P remaining in each well after washing is then quantified to determine the amount of radiolabeled phosphate incorporated into the peptide substrate. […]
Another example of a GSK-3 testing assay, similar to the one described hereinabove, is as follows: enzyme activities are assayed as the incorporation of ^33P from the gamma phosphate of ^33P-ATP (Amersham; Arlington Heights, Ill.; catalog #AH-9968) into biotinylated peptide substrate PKTP-KKAKKL. […] The final concentration of ATP is 0.5 μM (final specific radioactivity of 4 μCi/nmol), and the final concentration of substrate is 0.75 μM. […] Radioactivity associated with the beads is then quantified by standard scintillation counting. […]

T1 sequence (P49841 whole entry): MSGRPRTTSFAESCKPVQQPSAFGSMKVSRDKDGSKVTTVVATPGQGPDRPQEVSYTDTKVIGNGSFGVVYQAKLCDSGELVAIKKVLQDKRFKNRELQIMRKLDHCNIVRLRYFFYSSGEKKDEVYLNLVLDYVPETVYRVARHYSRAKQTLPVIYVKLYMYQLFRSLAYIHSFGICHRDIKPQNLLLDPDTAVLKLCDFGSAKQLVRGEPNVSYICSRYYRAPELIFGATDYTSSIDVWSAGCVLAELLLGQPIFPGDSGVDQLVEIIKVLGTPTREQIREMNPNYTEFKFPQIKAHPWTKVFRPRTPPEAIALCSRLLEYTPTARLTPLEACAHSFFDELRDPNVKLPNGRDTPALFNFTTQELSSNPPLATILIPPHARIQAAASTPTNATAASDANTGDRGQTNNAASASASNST

IC50: 6 nM
Structure (SMILES): O=c1[nH]nc2c(NCCNc3ccc(C(F)(F)F)cn3)nc3ccc(F)cc3n12 [Example 71, 8-Fluoro-4-[2-(5-trifluoromethyl-pyridin-2-Ylamino)-ethylamino]-2H-[1,2,4]triazolo[4,3-a]quinoxalin-1-one]
